Assay results: patent US11952328B2, “Selective ship inhibitors for treating disease” (THE RESEARCH FOUNDATION FOR THE STATE UNIVERSITY OF NEW YORK, priority 2018, dated 2024)

Legend:
[1] = system: RMA-Rael cells; assay: Overall survival of RMA-Rael tumor challenged hosts (Kaplan-Meier); type: in vivo, mice; settings: C57BL/6 hosts, 1×10^5 RMA-Rael
Description: FIGS. 6A-6I show the survival of tumor bearing mice treated with a SHIP inhibitor. […] Hosts were treated on the day of tumor challenge and the following day as in FIG. 1. The 2-day treatment course was repeated each week for the duration of survival. […] Mice received either NK cell depleting, anti-NK1.1 antibody (PK136), or isotype control antibody prior to tumor challenge (5×10^5 RMA-Rael). The hosts received SHIP inhibitor two consecutive days each week until death. […] The hosts were treated on the day of tumor challenge and the following day as in FIG. 1. The 2-day treatment course was repeated each week for the duration of survival.
The most clinically relevant endpoint in any cancer therapy study is not a measured decrease in tumor burden, but instead, a significant increase in survival promoted by the treatment.
In order to further define 3AC′s capacity to control malignancy through immunomodulatory effects the capacity of 3AC to promote resistance of NSG, TcRa^−/− and NK cell depleted hosts to RMA-Rael tumor challenge was examined. As before, mice received treatment with 3AC or vehicle for two consecutive days each week followed by a five-day cessation of treatment to prevent disarming and/or exhaustion. This treatment strategy was continued indefinitely and survival was monitored (FIG. 6A). To confirm that, in addition to the chemotherapeutic effect documented in FIG. 5, 3AC-induced enhanced-NK and -T cell activity is important for the survival benefit following tumor challenge, NSG mice (mice deficient of all lymphocyte lineages) were challenged.
To determine if T cells are required for the 3AC-mediated survival benefit, the same expirement using TcRa^−/− hosts that lack a TcR-ab^+ T cell compartment was repeated. […] To directly test the requirement for an intact NK cell compartment for 3AC-mediated increased survival after tumor challenge, the experiment as described in FIG. 6A were repeated challenging C57BL/6 hosts that were first depleted of
NK cells. Here, prior to tumor challenge, hosts were injected with either NK cell depleting anti-NK1.1 antibody (C57BL/6-DNK) or with antibody isotype control (C57BL/6-iso) (FIG. 6B).
The SHIP1 inhibitor 3AC was then tested in a genetic model in which the molecular target, SHIP1, was absent in a key target population of T cells, which are required for protection in the RMA-Rael lymphoma challenge model. […] Thus, SHIP inhibitor protection after tumor challenge is lost when the T cell compartment lacks the molecular target (SHIP1) in T cells.
There are two paralogs of SHIP: SHIP1 which is expressed in a limited range of tissues including hematopoietic cells, and SHIP2 which is expressed by a wide array of cell types. To determine if SHIP2 may also play a role in host defense against malignancy as described above tumor bearing mice were treated with small-molecule inhibitors against SHIP2 as well. […] Stem Cells. (2015); 33: 848-858; Hoekstra, E. et al., Lipid phosphatase SHIP2 functions as oncogene in colorectal cancer by regulating PKB activation. Oncotarget. (2016) 7: 73525-73540). Like 3AC, pan-SHIP1/2 inhibitors such as K118 are also cytotoxic for RMA-Rael cells in vitro. The pan SHIP1/2 inhibitory compounds K118 and K149 were compared to the SHIP1 selective compound 3AC.
Simultaneous inhibition of both SHIP1and SHIP2 may be deleterious to the immune response promoted by 3AC. […] In the study, the SHIP1 selective inhibitor 3AC that provides for protection after RMA-Rael challenge was simulataneously co-administered.

[2] = biological target: T1, SHIP2 (Homo sapiens, UniProt O15357); settings: Suwa et al. 2009; cited from earlier work
T1 sequence (O15357 1-1258): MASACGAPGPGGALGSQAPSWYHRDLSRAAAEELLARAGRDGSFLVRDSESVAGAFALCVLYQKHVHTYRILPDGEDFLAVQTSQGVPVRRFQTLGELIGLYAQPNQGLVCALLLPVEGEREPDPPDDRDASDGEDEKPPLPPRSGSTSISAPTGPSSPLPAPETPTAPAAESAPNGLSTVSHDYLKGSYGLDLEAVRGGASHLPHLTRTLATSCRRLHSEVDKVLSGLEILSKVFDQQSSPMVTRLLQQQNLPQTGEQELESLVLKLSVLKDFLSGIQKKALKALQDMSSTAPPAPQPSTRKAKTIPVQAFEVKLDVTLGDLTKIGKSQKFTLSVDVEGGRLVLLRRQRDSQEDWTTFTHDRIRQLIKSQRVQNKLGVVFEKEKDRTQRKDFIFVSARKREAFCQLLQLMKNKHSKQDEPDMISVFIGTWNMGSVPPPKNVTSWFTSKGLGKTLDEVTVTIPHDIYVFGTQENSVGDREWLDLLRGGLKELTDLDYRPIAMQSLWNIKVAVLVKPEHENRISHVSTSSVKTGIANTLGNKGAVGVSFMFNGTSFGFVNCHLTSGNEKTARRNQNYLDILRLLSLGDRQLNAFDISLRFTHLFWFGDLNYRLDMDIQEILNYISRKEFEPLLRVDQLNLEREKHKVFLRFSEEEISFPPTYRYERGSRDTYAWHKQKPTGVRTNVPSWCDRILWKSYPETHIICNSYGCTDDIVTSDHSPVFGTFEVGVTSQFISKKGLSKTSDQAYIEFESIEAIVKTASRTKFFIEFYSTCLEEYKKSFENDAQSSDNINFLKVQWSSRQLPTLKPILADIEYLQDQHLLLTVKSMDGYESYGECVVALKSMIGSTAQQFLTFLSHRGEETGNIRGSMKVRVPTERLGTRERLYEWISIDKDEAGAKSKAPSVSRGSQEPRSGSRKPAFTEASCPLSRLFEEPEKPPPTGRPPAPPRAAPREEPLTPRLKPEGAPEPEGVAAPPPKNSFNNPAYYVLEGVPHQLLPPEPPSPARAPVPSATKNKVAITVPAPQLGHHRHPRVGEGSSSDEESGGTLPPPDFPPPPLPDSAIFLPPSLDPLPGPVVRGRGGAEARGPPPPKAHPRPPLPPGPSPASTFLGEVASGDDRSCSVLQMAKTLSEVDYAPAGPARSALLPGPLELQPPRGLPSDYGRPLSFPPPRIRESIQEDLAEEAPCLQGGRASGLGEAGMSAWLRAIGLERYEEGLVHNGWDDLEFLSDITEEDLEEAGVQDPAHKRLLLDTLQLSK

[3] = system: RMA-Rael cells; assay: RMA-Rael viability following in vitro treatment; type: cell-based, mice; settings: 24 h, doses given as 5-20 pM, vs solvent only
Text: FIGS. 5A-5I show the effects of SHIP1 inhibitor as a chemotherapeutic. […] FIG. 5D and FIG. 5E show the representative histograms and box-and-whisker plots of FasL expression by NK cells from C56BL/6 (p=0.0002; Unpaired t test with Welch's correction) or RAG1−/− (p<0.0001; Mann-Whitney U test) tumor challenged, SHIP inhibitor or vehicle treated hosts. […] (NK cells p=0.0192; Unpaired t test with Welch's correction. T cells p=0.0659; Mann-Whitney U test). Additionally, FIGS. 5A-5G show the analysis by flow cytometry on day 3 after hosts receive SHIP inhibitor or vehicle for two consecutive days. NK cells are defined as NK1.1+CD3ε−. The graphs are representative of at least two independent experiments with at least four SHIP inhibitor and vehicle treated mice. […] Viability is expressed as frequency at a given concentration expressed as a percentage of solvent only treated cells. The kill curve summarizes pooled data from three independent experiments using six replicate wells/concentration with mean ±SEM indicated (n=18 per group. One-way ANOVA with Dunnett's multiple comparisons. 0 pM vs. 20 pM Adjusted p value =0.0001. 0 pM vs. 15 pM Adjusted p value =0.0001. 0 pM vs. 10 pM Adjusted p value =0.0001. 0 pM vs. 7.5 pM Adjusted p value =0.0001. 0 pM vs. 5 pM Adjusted p value =0.0001). […]

[4] = system: SHIP1/2; settings: Brooks et al. 2015; Hoekstra et al. 2016; cited from earlier work

Compound	overall survival (protection) ([1]; FIG. 6I, alone vs vehicle)	overall survival (effect on protection by 3AC) ([1]; FIG. 6I, co-administered with 3AC)	selectivity for SHIP2 [2]	RMA-Rael viability (direct killing) [3]	overall survival (protection) ([1]; FIG. 6H, vs vehicle)	SHIP1/2 inhibitory activity [4]
C[C@H](NC(=O)c1sccc1OCc1ccc(Cl)cc1)c1ccccc1 [AS1949490]	no protection	completely abrogated the protective effect of 3AC	high degree of selectivity			
C[C@@]12CCC[C@H]1[C@@H]1CC[C@H]3C[C@@H](N)CC[C@]3(C)[C@H]1CC2.Cl [Compound K118, 3β-amino-5α-androstane hydrochloride]				cytotoxic	no protection	pan-SHIP1/2 inhibitory activity
CSc1ccc2c(c1)c(CCN)c(C)n2Cc1ccc(Cl)cc1.Cl [Compound K149, 2-[1-(4-chlorobenzyl)-2-methyl-5-(methylmercapto)-1H-3-yl] ethanaminium chloride]					no protection	pan-SHIP1/2 inhibitory activity
